SMILES strings stand for the structures. Bounds are passed on as bounds.

A word on the IC50: it is the concentration at which inhibition is half-maximal.

Chain of His-Tagged hOGA (human O-GlcNAcase) (O60502 whole entry): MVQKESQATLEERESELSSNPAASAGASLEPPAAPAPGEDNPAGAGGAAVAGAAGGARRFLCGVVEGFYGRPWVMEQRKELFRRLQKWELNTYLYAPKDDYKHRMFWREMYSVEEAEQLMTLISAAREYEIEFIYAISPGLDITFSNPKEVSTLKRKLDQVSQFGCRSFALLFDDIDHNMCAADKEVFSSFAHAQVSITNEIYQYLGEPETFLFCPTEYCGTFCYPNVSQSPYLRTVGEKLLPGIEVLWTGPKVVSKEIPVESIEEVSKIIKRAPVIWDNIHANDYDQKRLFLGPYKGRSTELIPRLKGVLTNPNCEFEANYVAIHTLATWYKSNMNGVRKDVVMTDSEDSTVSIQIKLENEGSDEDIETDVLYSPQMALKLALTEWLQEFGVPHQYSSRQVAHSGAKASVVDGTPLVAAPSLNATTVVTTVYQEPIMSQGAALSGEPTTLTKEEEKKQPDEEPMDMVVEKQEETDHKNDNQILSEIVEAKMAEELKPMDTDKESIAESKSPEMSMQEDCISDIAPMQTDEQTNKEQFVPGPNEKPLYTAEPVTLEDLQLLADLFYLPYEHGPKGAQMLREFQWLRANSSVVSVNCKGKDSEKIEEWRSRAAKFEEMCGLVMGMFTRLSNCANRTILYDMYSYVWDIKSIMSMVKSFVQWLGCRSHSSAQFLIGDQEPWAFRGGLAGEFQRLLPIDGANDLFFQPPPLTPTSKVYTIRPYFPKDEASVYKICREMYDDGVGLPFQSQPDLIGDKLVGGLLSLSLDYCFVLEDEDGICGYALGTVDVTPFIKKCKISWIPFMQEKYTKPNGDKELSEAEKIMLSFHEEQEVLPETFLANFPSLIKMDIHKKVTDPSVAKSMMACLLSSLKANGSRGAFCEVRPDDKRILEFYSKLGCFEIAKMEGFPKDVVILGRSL

The experiment has as its target His-Tagged hOGA (human O-GlcNAcase) (Homo sapiens (Human), UniProt O60502). Briefly: Human O-GlcNAcase enzyme inhibition assay. The format is biochemical. The following applies: 20 nM His-Tagged hOGA, 10 μM FL-GlcNAc, 60 min at room temperature, pH 6.5; activity classes defined in μM; read-out: Enzymatic OGA IC50. How it is done:
Then, 20 nM of His-Tagged hOGA and 10 μM of FL-GlcNAc (Fluorescein mono-beta-D-(2-deoxy-2-N-acetyl) glucopyranoside; Marker Gene Technologies Inc, M1485) were added to the 384-well plate for a final volume of 20 μl.
Turning to `CC(c1ccc2c(c1)OCC2)N1CCN(C(=O)NC2CCOC2)CC1` (racemic) [Example 18, 4-(1-(2,3-dihydrobenzofuran-6-yl)ethyl)-N-(tetrahydrofuran-3-yl)piperazine-1-carboxamide], the IC50 lay in the range of 0.05 to 0.2 µM.

With `CC(c1ccc2c(c1)OCO2)N1CCN(C(=O)Nc2ccccc2)CC1` (racemic) [Example 19, 4-(1-(benzo[d][1,3]dioxol-5-yl)ethyl)-N-phenylpiperazine-1-carboxamide], the IC50 lay in the range of 0.2 to 1 µM.

With `CC(c1ccc2c(c1)OCO2)N1CCN(C(=O)Nc2ccc(Cl)cc2)CC1` (racemic) [Example 20, 4-(1-(benzo[d][1, 3]dioxol-5-yl)ethyl)-N-(4-chlorophenyl)piperazine-1-carboxamide], the 50% inhibitory concentration (IC50) fell in the range of 0.2 to 1 µM.

On to `CC(c1ccc2c(c1)OCC2)N1CCC(C(=O)NCc2ccc(C#N)cc2)CC1` (racemic) [Example 21, N-(4-cyanobenzyl)-1-(1-(2,3-dihydrobenzofuran-6-yl)ethyl)piperidine-4-carboxamide], for which the concentration for half-maximal inhibition (IC50) fell in the range of 0.2 to 1 µM.

`CC(c1ccc2c(c1)OCC2)N1CCC(C(=O)NCc2ccc(S(C)(=O)=O)cc2)CC1` (racemic) [Example 22, 1-(1-(2,3-dihydrobenzofuran-6-yl)ethyl)-N-(4-(methylsulfonyl)benzyl)piperidine-4-carboxamide]: the IC50 is 0.2 to 1 µM.

Take `CC(c1ccc2c(c1)OCC2)N1CCC(C(=O)NCc2ccc(C(F)(F)F)cc2)CC1` (racemic) [Example 23, 1-(1-(2,3-dihydrobenzofuran-6-yl)ethyl)-N-(4-(trifluoromethyl)benzyl)piperidine-4-carboxamide]: the concentration for half-maximal inhibition (IC50) fell in the range of 0.2 to 1 µM.

For `CC(c1ccc2c(c1)OCC2)N1CCC(Nc2cccnc2)CC1` (racemic) [Example 24, N-(1-(1-(2,3-dihydrobenzofuran-6-yl)ethyl)piperidin-4-yl)pyridin-3-amine], the IC50 lay within 0.05 to 0.2 µM.

As to `CC(c1ccc2c(c1)OCC2)N1CCC(NC(=O)Cc2ccc(S(C)(=O)=O)cc2)CC1` (racemic) [Example 25, N-(1-(1-(2,3-dihydrobenzofuran-6-yl)ethyl)piperidin-4-yl)-2-(4-(methylsulfonyl)phenyl)acetamide], the IC50 is < 0.05 µM.

With `CC(c1ccc2c(c1)OCC2)N1CCC(NC(=O)Cc2ccc(C#N)cc2)CC1` (racemic) [Example 26, 2-(4-cyanophenyl)-N-(1-(1-(2,3-dihydrobenzofuran-6-yl)ethyl)piperidin-4-yl)acetamide], the half-maximal inhibitory concentration (IC50) lay within 0.05 to 0.2 µM.

With `CC(c1ccc2c(c1)OCC2)N1CCC(NC(=O)Cc2ccc(C(F)(F)F)cc2)CC1` (racemic) [Example 27, N-(1-(1-(2,3-dihydrobenzofuran-6-yl)ethyl)piperidin-4-yl)-2-(4-(trifluoromethyl)phenyl)acetamide], the half-inhibitory concentration (IC50) was 0.05 to 0.2 µM.

For `COc1cc(OC2CCN(C(C)c3ccc4c(c3)OCC4)CC2)ccn1` (racemic) [Example 29, 4-((1-(1-(2,3-dihydrobenzofuran-6-yl)ethyl)piperidin-4-yl)oxy)-2-methoxypyridine], the IC50 is < 0.05 µM.

On to `CC(c1ccc2c(c1)OCC2)N1CCC(Oc2ccc(S(C)(=O)=O)cn2)CC1` (racemic) [Example 30, 2-((1-(1-(2,3-dihydrobenzofuran-6-yl)ethyl)piperidin-4-yl)oxy)-5-(methylsulfonyl)pyridine], for which the concentration for half-maximal inhibition (IC50) is < 0.05 µM.

In the case of `CC(c1ccc2c(c1)OCC2)N1CCC(Oc2cccnc2)CC1` (racemic) [Example 32, 3-((1-(1-(2,3-dihydrobenzofuran-6-yl)ethyl)piperidin-4-yl)oxy)pyridine], the IC50 is < 0.05 µM.

For the compound `CC(c1ccc2c(c1)OCC2)N1CCC(Oc2ccc(C#N)cn2)CC1` (racemic) [Example 33, 6-((1-(1-(2,3-dihydrobenzofuran-6-yl)ethyl)piperidin-4-yl)oxy)nicotinonitrile], the IC50 is < 0.05 µM.

`CC(c1ccc2c(c1)OCC2)N1CCC(Oc2cncnc2)CC1` (racemic) [Example 34, 5-((1-(1-(2,3-dihydrobenzofuran-6-yl)ethyl)piperidin-4-yl)oxy)pyrimidine]: the half-maximal inhibitory concentration (IC50) is 0.05 to 0.2 µM.

`CC(c1ccc2c(c1)OCC2)N1CCC(OCc2cccnc2)CC1` (racemic) [Example 35, 3-(((1-(1-(2,3-dihydrobenzofuran-6-yl)ethyl)piperidin-4-yl)oxy)methyl)pyridine]: the IC50 fell in the range of 0.05 to 0.2 µM.

In the case of `CC(c1ccc2c(c1)OCC2)N1CCC(Oc2ncc(S(C)(=O)=O)cn2)CC1` (racemic) [Example 36, 2-((1-(1-(2,3-dihydrobenzofuran-6-yl)ethyl)piperidin-4-yl)oxy)-5-(methylsulfonyl)pyrimidine], the IC50 lay within 0.05 to 0.2 µM.

Consider `CC(c1ccc2c(c1)OCC2)N1CCC(Oc2ncccn2)CC1` (racemic) [Example 37, 2-((1-(1-(2,3-dihydrobenzofuran-6-yl)ethyl)piperidin-4-yl)oxy)pyrimidine], for which the half-inhibitory concentration (IC50) lay within 0.2 to 1 µM.

For `CC(c1ccc2c(c1)OCC2)N1CCC(Oc2cccnn2)CC1` (racemic) [Example 38, 3-((1-(1-(2,3-dihydrobenzofuran-6-yl)ethyl)piperidin-4-yl)oxy)pyridazine], the IC50 was 0.2 to 1 µM.

Consider `CC(c1ccc2c(c1)OCC2)N1CCC(Oc2cccnc2)CC1` (single isomer, unassigned) [Example 28], for which the IC50 is < 0.05 µM.

For the compound `CC(c1ccc2scnc2c1)N1CCC(Oc2cccnc2)CC1` (single isomer, unassigned) [Example 31, (S)-5-(1-(4-(pyridin-3-yloxy)piperidin-1-yl)ethyl)benzo[d]thiazole or (R)-5-(1-(4-(pyridin-3-yloxy)piperidin-1-yl)ethyl)benzo[d]thiazole], the IC50 is < 0.05 µM.

As to `CC(c1ccc2c(c1)OCC2)N1CCC(Oc2cccnc2)CC1` (single isomer, unassigned) [Example 39], the 50% inhibitory concentration (IC50) fell in the range of 1 to 10 µM.

(Values after patent US11213525B2, “Linear glycosidase inhibitors” (Asceneuron SA, priority 2017, dated 2022).)
